ChEMBL document CHEMBL3885881, “DrugMatrix”

Organism: Rattus norvegicus
Assay: DrugMatrix - Regimen: Daily Repeat
Type: toxicity, organism-based, Sprague-Dawley
Parameters: regimen Daily Repeat, gender Male, age 6-8 weeks
Settings: in vivo, po, route oral GAVAGE, vehicle .5 % CMC; for ABSOLUTE BASOPHIL / ABSOLUTE EOSINOPHIL / ABSOLUTE LYMPHOCYTE / ABSOLUTE MONOCYTE / ABSOLUTE SEGMENTED NEUTROPHIL / BASOPHIL / EOSINOPHIL / ERYTHROCYTE COUNT / HEMATOCRIT / HEMOGLOBIN / LEUKOCYTE COUNT / LYMPHOCYTE / MEAN CORPUSCULAR HEMOGLOBIN / MEAN CORPUSCULAR HEMOGLOBIN CONCENTRATION / MEAN CORPUSCULAR VOLUME / MONOCYTE / NEUTROPHIL / NUCLEATED RED BLOOD CELLS / PLATELET COUNT: tissue Blood; for ALANINE AMINOTRANSFERASE / ALBUMIN / ALKALINE PHOSPHATASE / ASPARTATE AMINOTRANSFERASE / BLOOD UREA NITROGEN / CARBON DIOXIDE / CHLORIDE / CHOLESTEROL / CREATINE PHOSPHOKINASE / CREATININE / GLUCOSE / LACTATE DEHYDROGENASE / LIPASE / PHOSPHORUS / POTASSIUM / SODIUM / TOTAL BILIRUBIN / TOTAL PROTEIN / URIC ACID: tissue Plasma
[1] = 15 mg/kg, 120 h, dose level Low, time 5 day
[2] = 1500 mg/kg, 72 h, dose level High, time 3 day
[3] = 1500 mg/kg, 120 h, dose level High, time 5 day

`COC(=O)c1ccc(O)cc1` [METHYLPARABEN] was tested, and the “ABSOLUTE BASOPHIL” value [1] was 0 CELLS/uL, the “ABSOLUTE EOSINOPHIL” value [1] was 60.67 CELLS/uL and the “ABSOLUTE LYMPHOCYTE” value [1] was 12673.33 CELLS/uL. The “ABSOLUTE MONOCYTE” value [1] was 0 CELLS/uL, the “ABSOLUTE SEGMENTED NEUTROPHIL” value [1] was 1232.67 CELLS/uL and the BASOPHIL [1] was 0%. The EOSINOPHIL [1] was 0.33%, the “ERYTHROCYTE COUNT” value [1] was 5.42 x10E6/uL and the HEMATOCRIT [1] was 34.93%. For the same compound, the HEMOGLOBIN [1] was 13.97 G/DL, the “LEUKOCYTE COUNT” value [1] was 13.97 x10E3/uL and the LYMPHOCYTE [1] was 91%. The “MEAN CORPUSCULAR HEMOGLOBIN” value [1] was 25.8 pg, the “MEAN CORPUSCULAR HEMOGLOBIN CONCENTRATION” value [1] was 40 G/DL and the “MEAN CORPUSCULAR VOLUME” value [1] was 64.4 fL. The MONOCYTE [1] was 0%, the NEUTROPHIL [1] was 8.67% and the “NUCLEATED RED BLOOD CELLS” value [1] was 0 /100WBC. For the same compound, the “PLATELET COUNT” value [1] was 1233.67 x10E3/uL, the “ALANINE AMINOTRANSFERASE” value [1] was 58.67 u/L and the ALBUMIN [1] was 3.9 G/DL. The “ALKALINE PHOSPHATASE” value [1] was 392.67 u/L, the “ASPARTATE AMINOTRANSFERASE” value [1] was 87.33 u/L and the “BLOOD UREA NITROGEN” value [1] was 17.67 mg/dL. The “CARBON DIOXIDE” value [1] was 26 mmol/L, the CHLORIDE [1] was 101.67 MEQ/L and the CHOLESTEROL [1] was 65.33 mg/dL. For the same compound, the “CREATINE PHOSPHOKINASE” value [1] was 524 u/L, the CREATININE [1] was 0.12 mg/dL and the GLUCOSE [1] was 151 mg/dL. For the same compound, the “LACTATE DEHYDROGENASE” value [1] was 137.67 u/L, the LIPASE [1] was 9.33 u/L and the PHOSPHORUS [1] was 14.13 mg/dL. For the same compound, the POTASSIUM [1] was 6.95 MEQ/L, the SODIUM [1] was 142.07 MEQ/L and the “TOTAL BILIRUBIN” value [1] was 0.23 mg/dL. The “TOTAL PROTEIN” value [1] was 5.7 G/DL, the “URIC ACID” value [1] was 1.93 mg/dL and the “ABSOLUTE BASOPHIL” value [2] was 0 CELLS/uL. For the same compound, the “ABSOLUTE EOSINOPHIL” value [2] was 0 CELLS/uL, the “ABSOLUTE LYMPHOCYTE” value [2] was 15298 CELLS/uL and the “ABSOLUTE MONOCYTE” value [2] was 225.33 CELLS/uL. The “ABSOLUTE SEGMENTED NEUTROPHIL” value [2] was 3076.67 CELLS/uL, the BASOPHIL [2] was 0% and the EOSINOPHIL [2] was 0%. The “ERYTHROCYTE COUNT” value [2] was 5.36 x10E6/uL, the HEMATOCRIT [2] was 33.07% and the HEMOGLOBIN [2] was 13.37 G/DL. For the same compound, the “LEUKOCYTE COUNT” value [2] was 18.6 x10E3/uL, the LYMPHOCYTE [2] was 82.67% and the “MEAN CORPUSCULAR HEMOGLOBIN” value [2] was 25.03 pg. For the same compound, the “MEAN CORPUSCULAR HEMOGLOBIN CONCENTRATION” value [2] was 40.47 G/DL, the “MEAN CORPUSCULAR VOLUME” value [2] was 61.8 fL and the MONOCYTE [2] was 1.33%. The NEUTROPHIL [2] was 16%, the “NUCLEATED RED BLOOD CELLS” value [2] was 0 /100WBC and the “PLATELET COUNT” value [2] was 1154.33 x10E3/uL. The “ALANINE AMINOTRANSFERASE” value [2] was 60 u/L, the ALBUMIN [2] was 4.03 G/DL and the “ALKALINE PHOSPHATASE” value [2] was 433.33 u/L. The “ASPARTATE AMINOTRANSFERASE” value [2] was 87 u/L, the “BLOOD UREA NITROGEN” value [2] was 18 mg/dL and the “CARBON DIOXIDE” value [2] was 30.33 mmol/L. The CHLORIDE [2] was 95.67 MEQ/L, the CHOLESTEROL [2] was 67.67 mg/dL and the “CREATINE PHOSPHOKINASE” value [2] was 211.67 u/L. For the same compound, the CREATININE [2] was 0.15 mg/dL, the GLUCOSE [2] was 165.67 mg/dL and the “LACTATE DEHYDROGENASE” value [2] was 122 u/L. The LIPASE [2] was 9 u/L, the PHOSPHORUS [2] was 12.87 mg/dL and the POTASSIUM [2] was 6.96 MEQ/L. The SODIUM [2] was 141.63 MEQ/L, the “TOTAL BILIRUBIN” value [2] was 0.23 mg/dL and the “TOTAL PROTEIN” value [2] was 5.77 G/DL. For the same compound, the “URIC ACID” value [2] was 1.4 mg/dL, the “ABSOLUTE BASOPHIL” value [3] was 0 CELLS/uL and the “ABSOLUTE EOSINOPHIL” value [3] was 0 CELLS/uL. For the same compound, the “ABSOLUTE LYMPHOCYTE” value [3] was 16336 CELLS/uL, the “ABSOLUTE MONOCYTE” value [3] was 67.33 CELLS/uL and the “ABSOLUTE SEGMENTED NEUTROPHIL” value [3] was 1396.67 CELLS/uL. For the same compound, the BASOPHIL [3] was 0%, the EOSINOPHIL [3] was 0% and the “ERYTHROCYTE COUNT” value [3] was 5.64 x10E6/uL. For the same compound, the HEMATOCRIT [3] was 35.9%, the HEMOGLOBIN [3] was 14.27 G/DL and the “LEUKOCYTE COUNT” value [3] was 17.8 x10E3/uL. The LYMPHOCYTE [3] was 92%, the “MEAN CORPUSCULAR HEMOGLOBIN” value [3] was 25.3 pg and the “MEAN CORPUSCULAR HEMOGLOBIN CONCENTRATION” value [3] was 39.77 G/DL. The “MEAN CORPUSCULAR VOLUME” value [3] was 63.6 fL, the MONOCYTE [3] was 0.33% and the NEUTROPHIL [3] was 7.67%. For the same compound, the “NUCLEATED RED BLOOD CELLS” value [3] was 0 /100WBC, the “PLATELET COUNT” value [3] was 1293.33 x10E3/uL and the “ALANINE AMINOTRANSFERASE” value [3] was 45.33 u/L. For the same compound, the ALBUMIN [3] was 4.33 G/DL, the “ALKALINE PHOSPHATASE” value [3] was 338.33 u/L and the “ASPARTATE AMINOTRANSFERASE” value [3] was 85 u/L. For the same compound, the “BLOOD UREA NITROGEN” value [3] was 15.67 mg/dL, the “CARBON DIOXIDE” value [3] was 30 mmol/L and the CHLORIDE [3] was 100.67 MEQ/L. For the same compound, the CHOLESTEROL [3] was 76 mg/dL, the “CREATINE PHOSPHOKINASE” value [3] was 311.33 u/L and the CREATININE [3] was 0.22 mg/dL. The GLUCOSE [3] was 154.33 mg/dL, the “LACTATE DEHYDROGENASE” value [3] was 98 u/L and the LIPASE [3] was 9 u/L. The PHOSPHORUS [3] was 11.73 mg/dL, the POTASSIUM [3] was 6.62 MEQ/L and the SODIUM [3] was 145.9 MEQ/L. For the same compound, the “TOTAL BILIRUBIN” value [3] was 0.27 mg/dL, the “TOTAL PROTEIN” value [3] was 6.1 G/DL and the “URIC ACID” value [3] was 1.9 mg/dL.
